≈ marks a conversion by molar mass, not a printed value. Where “and” joins values, the source holds several entries; their conditions need not be identical. Equal values may be shown once. Read-outs that look alike come from different tables or passages of the source.
Tests used:
M. tuberculosis 103471 = experiment: Antimycobacterial activity, twofold agar dilution MIC; assay type: cell-based; settings: for M. tuberculosis 103471 MIC: Middlebrook 7H11 agar; for MIC: Mycobacterium tuberculosis, 103471, Middlebrook 7H11 agar
Experimental: (§1) Compounds 3a-h were preliminarily assayed against two freshly isolated clinical strains, M. fortuitum CA10 and M. tuberculosis B814, according to the dilution method in agar (Hawkins et al., 1991).
(§2) Growth media were Mueller-Hinton (Difco) containing 10% of OADC (oleic acid, albumine and dextrose complex) for M. fortuitum and Middlebrook 7H11 agar (Difco) with 10% of OADC for M. tuberculosis. Substances were tested at the single dose of 100 μg/mL. The active compounds were then assayed for inhibitory activity against a variety of mycobacterium strains in Middlebrok 7H11 agar by a standard twofold agar dilution method. The mycobacterium species used for biological tests were M. tuberculosis […], M. tuberculosis H37Rv, M. tuberculosis INH-R ATCC, M. tuberculosis RMP-R ATCC and, among atypical mycobacteria, M. smegmatis 103599, M. marinum 6423 and M. avium 103317 (from the Institute Pasteur collection). Plates were incubated at 37° C. for 3 or 28 days. BM212, INH, SM and RIF were used as reference compounds. After cultivation, MICs were read as minimal concentrations of drugs completely inhibiting visible growth of mycobacteria.

Vero cells = settings: MTT after 72 h
M. avium 103317 = experiment: Antimycobacterial activity, agar dilution MIC; assay type: cell-based
M. tuberculosis H37Rv = experiment: Antimycobacterial activity, twofold agar dilution MIC; assay type: cell-based; settings: Middlebrook 7H11 agar; for MIC: Mycobacterium tuberculosis, H37RV
Experimental: as §1, §2

in vitro = settings: African green monkey
M. smegmatis 103599 = experiment: Antimycobacterial activity, agar dilution MIC; assay type: cell-based
M. marinum 6423 = experiment: Antimycobacterial activity, agar dilution MIC; assay type: cell-based
atypical mycobacteria = experiment: Antimycobacterial activity toward atypical mycobacteria; assay type: cell-based; settings: M. avium, M. marinum, M. smegmatis together
Experimental: as §2

[1] = tested on: intracellular M. tuberculosis; experiment: Inhibitory activity on intramacrophagic mycobacteria (J774.A1 murine macrophages); assay type: cell-based; settings: after 6 days of treatment
[2] = Table 7 head prints strain 103471
[3] = Mycolicibacterium smegmatis, 103599; read-out: M. smegmatis 103599 MIC
[4] = Mycobacterium avium, 103317; Table 7 head prints strain 103471; read-out: M. avium 103471 MIC
[5] = Mycobacterium avium, 103317; read-out: M. avium 103317 MIC
[6] = Mycobacterium marinum, 6423; read-out: M. marinum 6423 MIC

SMILES | M. tuberculosis 103471 MIC (M. tuberculosis 103471) | CC50 VERO cells (Vero cells) [µg/mL] | M. avium 103471 MIC (M. avium 103317; [2]) [µg/mL] | M. tuberculosis H37Rv MIC (M. tuberculosis H37Rv) [µg/mL] | CC50 (in vitro) [µg/mL] | MIC (M. smegmatis 103599; [3]) [µg/mL] | MIC (M. avium 103317; [4]) [µg/mL] | MIC (M. avium 103317; [5]) [µg/mL] | MIC (M. tuberculosis 103471) [µg/mL] | MIC (M. tuberculosis H37Rv) [µg/mL] | MIC (M. marinum 6423; [6]) [µg/mL] | further results
CSc1ccc(-c2cc(CN3CCCCC3)c(C)n2-c2ccc(F)cc2)cc1 [Compound 3g] | 8 µg/mL |  |  |  |  |  |  |  |  |  |  | 
CSc1ccc(-c2cc(CN3CCOCC3)c(C)n2-c2ccc(F)cc2)cc1 [Compound 3h] | 0.25 µg/mL | 44.34 (≈ 112 µM) | 16 | 0.5 |  |  |  |  |  |  |  | 
[H]/N=C(/N)N[C@H]1[C@H](O)[C@@H](O)[C@H](O[C@@H]2O[C@@H](C)[C@](O)(C=O)[C@H]2O[C@@H]2O[C@@H](CO)[C@H](O)[C@@H](O)[C@@H]2NC)[C@@H](N/C(N)=N\[H])[C@@H]1O [Streptomycin, SM, Streptomycin, reference compound] | 0.3 µg/mL |  |  |  | 64 (≈ 110 µM) | 8 (≈ 13.8 µM) | 8 (≈ 13.8 µM) | 8 (≈ 13.8 µM) | 0.3 (≈ 0.516 µM) | 0.5 (≈ 0.86 µM) | 32 (≈ 55 µM) | 
CSc1ccc(-c2cc(CN3CCSCC3)c(C)n2-c2ccc(F)cc2)cc1 [Compound 3a, N-(4-fluorophenyl)-2-methyl-3-thiomorpholinomethyl-5-(4-methylsulfanylphenyl)pyrrole] | 0.125 µg/mL and <0.125 µg/mL |  |  |  | > 128 | 16 (≈ 38.8 µM) | 8 (≈ 19.4 µM) | 8 (≈ 19.4 µM) | < 0.125 | 0.125 (≈ 0.303 µM) | 8 (≈ 19.4 µM) | activity toward atypical mycobacteria (MIC range) (atypical mycobacteria): 8 to 16 µg/mL; % of growth reduction respect to untreated controls, intracellular M. tuberculosis ([1]; concentration 0.125 μg/ml): 96.12%; % of growth reduction respect to untreated controls, intracellular M. tuberculosis ([1]; concentration 0.25 μg/ml): 99.02%; % of growth reduction respect to untreated controls, intracellular M. tuberculosis ([1]; concentration 0.5 μg/ml): 99.72%; % of growth reduction respect to untreated controls, intracellular M. tuberculosis ([1]; concentration 1 μg/ml): 99.81%
CSc1ccc(-c2cc(CN3CCSCC3)c(C)n2-c2ccc(C)cc2)cc1 [Compound 3b] | 0.25 µg/mL | 18.40 (≈ 45 µM) | 16 | 0.25 |  |  |  |  |  |  |  | 
CSc1ccc(-c2cc(CN3CCN(C)CC3)c(C)n2-c2ccc(F)cc2)cc1 [Compound 3f] | 2 µg/mL | 9.33 (≈ 22.8 µM) | 4 | 2 |  |  |  |  |  |  |  | 
NNC(=O)c1ccncc1 [Isoniazid, INH, Isoniazid, reference compound] |  |  |  |  | 32 (≈ 233 µM) |  |  |  | 0.125 (≈ 0.911 µM) | 0.25 (≈ 1.82 µM) |  | MIC (M. smegmatis 103599; Mycolicibacterium smegmatis, 103599, read-out: M. smegmatis 103599 MIC): 64 µg/mL (≈ 467 µM); MIC (M. avium 103317; Mycobacterium avium, 103317, read-out: M. avium 103317 MIC): 32 µg/mL (≈ 233 µM); MIC (M. avium 103317; Mycobacterium avium, 103317, read-out: M. avium 103471 MIC): 32 µg/mL (≈ 233 µM); MIC (M. marinum 6423; Mycobacterium marinum, 6423, read-out: M. marinum 6423 MIC): 16 µg/mL (≈ 117 µM)
CO[C@H]1/C=C/O[C@@]2(C)Oc3c(C)c(O)c4c(O)c(c(/C=N/N5CCN(C)CC5)c(O)c4c3C2=O)NC(=O)/C(C)=C\C=C\[C@H](C)[C@H](O)[C@@H](C)[C@@H](O)[C@@H](C)[C@H](OC(C)=O)[C@@H]1C [Rifampicin, RIF, Rifampicin] |  |  |  |  | > 64 | 32 (≈ 38.9 µM) | 0.3 (≈ 0.365 µM) | 0.3 (≈ 0.365 µM) | 0.25 (≈ 0.304 µM) | 0.8 (≈ 0.972 µM) | 0.6 (≈ 0.729 µM) | % of growth reduction respect to untreated controls, intracellular M. tuberculosis ([1]; concentration 0.125 μg/ml): 96.59%; % of growth reduction respect to untreated controls, intracellular M. tuberculosis ([1]; concentration 0.25 μg/ml): 99.83%; % of growth reduction respect to untreated controls, intracellular M. tuberculosis ([1]; concentration 0.5 μg/ml): 99.93%; % of growth reduction respect to untreated controls, intracellular M. tuberculosis ([1]; concentration 1 μg/ml): 99.97%
CCCc1ccc(-n2c(-c3ccc(SC)cc3)cc(CN3CCSCC3)c2C)cc1 [Compound 3d] | 0.125 µg/mL | 25.25 (≈ 57.8 µM) | 8 | 0.5 |  |  |  |  |  |  |  | 
CSc1ccc(-c2cc(CN3CCSCC3)c(C)n2-c2ccc(C(C)C)cc2)cc1 [Compound 3e] | 0.125 µg/mL | 37.58 (≈ 86.1 µM) | 8 | 0.5 |  |  |  |  |  |  |  | 
CCc1ccc(-n2c(-c3ccc(SC)cc3)cc(CN3CCSCC3)c2C)cc1 [Compound 3c] | 0.25 µg/mL | 17.18 (≈ 40.6 µM) | >16 | 0.25 |  |  |  |  |  |  |  | 
Cc1c(CN2CCN(C)CC2)cc(-c2ccc(Cl)cc2)n1-c1ccc(Cl)cc1 [BM 212, 1-{[1,5-bis(4-chlorophenyl)-2-methyl-1H-pyrrol-3-yl]methyl}-4-methylpiperazine] | 0.7 µg/mL |  |  |  | 4 (≈ 9.65 µM) | 25 (≈ 60.3 µM) | 0.4 (≈ 0.965 µM) | 0.4 (≈ 0.965 µM) | 0.7 (≈ 1.69 µM) |  | 100 (≈ 241 µM) | % of growth reduction respect to untreated controls, intracellular M. tuberculosis ([1]; concentration 0.125 μg/ml): 0%; % of growth reduction respect to untreated controls, intracellular M. tuberculosis ([1]; concentration 0.25 μg/ml): 29.41%; % of growth reduction respect to untreated controls, intracellular M. tuberculosis ([1]; concentration 0.5 μg/ml): 32.35%; % of growth reduction respect to untreated controls, intracellular M. tuberculosis ([1]; concentration 1 μg/ml): 51.76%
